Test results from patent US7812036B2, “Androgens” (N.V. Organon, priority 2004, dated 2010).

Target: T1, human androgen receptor (Homo sapiens, UniProt P10275)
T1 construct: expressed in transfected cells; host or cells: Chinese hamster ovary (CHO) cells, line CHO-AR-pMMTV-LUC 1G12-A5-CA
T1 sequence (P10275 1-920): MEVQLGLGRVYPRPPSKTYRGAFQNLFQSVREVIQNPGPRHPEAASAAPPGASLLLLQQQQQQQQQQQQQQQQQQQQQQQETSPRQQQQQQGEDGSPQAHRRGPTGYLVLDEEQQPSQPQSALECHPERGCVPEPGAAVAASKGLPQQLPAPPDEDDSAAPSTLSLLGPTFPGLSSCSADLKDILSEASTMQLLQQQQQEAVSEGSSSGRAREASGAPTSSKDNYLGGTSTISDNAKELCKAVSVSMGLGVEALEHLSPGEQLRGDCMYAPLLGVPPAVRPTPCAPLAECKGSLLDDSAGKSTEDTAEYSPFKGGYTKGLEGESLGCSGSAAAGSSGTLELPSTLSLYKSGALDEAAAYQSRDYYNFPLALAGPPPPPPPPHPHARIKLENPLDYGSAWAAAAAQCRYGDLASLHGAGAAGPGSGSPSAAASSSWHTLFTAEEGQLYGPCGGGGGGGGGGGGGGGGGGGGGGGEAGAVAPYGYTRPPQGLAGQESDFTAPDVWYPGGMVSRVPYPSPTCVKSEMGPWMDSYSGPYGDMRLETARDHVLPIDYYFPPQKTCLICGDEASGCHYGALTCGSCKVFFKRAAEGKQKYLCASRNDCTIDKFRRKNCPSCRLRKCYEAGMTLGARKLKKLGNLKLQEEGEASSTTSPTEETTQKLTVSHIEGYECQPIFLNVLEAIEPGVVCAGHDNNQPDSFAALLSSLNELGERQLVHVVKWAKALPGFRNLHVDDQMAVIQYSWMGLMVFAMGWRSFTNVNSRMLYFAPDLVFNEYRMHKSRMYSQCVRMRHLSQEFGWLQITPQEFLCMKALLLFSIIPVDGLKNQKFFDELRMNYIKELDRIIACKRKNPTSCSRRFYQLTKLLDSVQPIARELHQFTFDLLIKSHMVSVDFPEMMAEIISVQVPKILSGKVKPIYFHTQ
Experiment: Androgenic activity (potency) in vitro bioassay, CHO-AR-pMMTV-LUC 1G12-A5-CA cells, luciferase reporter
Type: cell-based
Settings: CHO cells stably transfected with human androgen receptor and MMTV-luciferase reporter; in the presence of 0.1 μmol/l onapristone; potencies expressed as percentage of DHT activity (maximal efficacy with 100 nmol/l DHT set as 100%)
Description: The androgenic activity (potency) of the compounds of the invention was determined in an in vitro bioassay of Chinese hamster ovary (CHO) cells stably transfected with the human androgen receptor expression plasmid and a reporter plasmid in which the MMTV promoter is linked to the luciferase reporter gene. The cell line CHO-AR-pMMTV-LUC 1G12-A5-CA is described in Schoonen et al. (J. Steroid Biochem. Molec. Biol. 2002; 74: 213-222). The androgen receptor activity of compounds was determined in the presence of 0.1 μmol/l onapristone. The maximal efficacy in the presence of 100 nmol/1 DHT was set as 100%. The potencies are expressed as percentage of DHT activity.

| Molecule | Potency (%) |
| --- | --- |
| CC(=O)CNc1ccc2c(Sc3ccccc3[N+](=O)[O-])cn(Cc3cc(F)cc(F)c3)c2c1 [Example 21a, 1-[1-(3,5-Difluoro-benzyl)-3-(2-nitro-phenylsulfanyl)-1H-indol-6-ylamino]-propan-2-one] | 7.2% |
| O=[N+]([O-])c1ccccc1Sc1cn(Cc2cc(F)cc(F)c2)c2cc(NCCO)ccc12 [Example 21b, 2-[1-(3,5-Difluoro-benzyl)-3-(2-nitro-phenylsulfanyl)-1H-indol-6-ylamino]-ethanol] | 7.9% |
| COCCNc1ccc2c(Sc3ccccc3[N+](=O)[O-])cn(Cc3cc(F)cc(F)c3)c2c1 [Example 21c] | 11.4% |
| N#CCNc1ccc2c(Sc3ccccc3[N+](=O)[O-])cn(Cc3ccccn3)c2c1 [Example 21d, [3-(2-Nitro-phenylsulfanyl)-1-pyridin-2-ylmethyl-1H-indol-6-ylamino]-acetonitrile] | 6.7% |
| COCCNc1ccc2c(Sc3ccccc3[N+](=O)[O-])cn(Cc3ccccn3)c2c1 [Example 21e, (2-Methoxy-ethyl)-[3-(2-nitro-phenylsulfanyl)-1-pyridin-2-ylmethyl-1H-indol-6-yl]-amine] | 8.3% |
| COCCNc1ccc2c(Sc3ccccc3[N+](=O)[O-])cn(Cc3cccnc3)c2c1 [Example 21f, (2-Methoxy-ethyl)-[3-(2-nitro-phenylsulfanyl)-1-pyridin-3-ylmethyl-1H-indol-6-yl]-amine] | 20.9% |
| N#CCNc1ccc2c(Sc3ccccc3C#N)cn(Cc3cc(F)cc(F)c3)c2c1 [Example 21g, 2-[6-(Cyanomethyl-amino)-1-(3,5-difluoro-benzyl)-1H-indol-3-ylsulfanyl]-benzonitrile] | 9.2% |
| N#Cc1ccccc1Sc1cn(Cc2cc(F)cc(F)c2)c2cc(NCCO)ccc12 [Example 21h] | 2.9% |
| COCCNc1ccc2c(Sc3ccccc3C#N)cn(Cc3cc(F)cc(F)c3)c2c1 [Example 21i] | 6.0% |
| N#CCNc1ccc2c(Sc3ccccc3[N+](=O)[O-])cn(Cc3cccnc3)c2c1 [Example 21j, [3-(2-Nitro-phenylsulfanyl)-1-pyridin-3-ylmethyl-1H-indol-6-ylamino]-acetonitrile] | 1.0% |
| O=[N+]([O-])c1ccccc1Sc1cn(Cc2cc(F)cc(F)c2)c2cc(NCC(F)(F)F)ccc12 [Example 21k, [1 (3,5-Difluoro-benzyl)-3-(2-nitro-phenylsulfanyl)-1H-indol-6-yl]-(2,2,2-trifluoroethyl)-amine] | 0.6% |
| CCCNc1ccc2c(Sc3ccccc3[N+](=O)[O-])cn(Cc3cc(F)cc(F)c3)c2c1 [Example 22a, [1-(3,5-Difluoro-benzyl)-3-(2-nitro-phenylsulfanyl)-1H-indol-6-yl]-propyl-amine] | 2.4% |
| C#CCNc1ccc2c(Sc3ccccc3[N+](=O)[O-])cn(Cc3cc(F)cc(F)c3)c2c1 [Example 22b, [1-(3,5-Difluoro-benzyl)-3-(2-nitro-phenylsulfanyl)-1H-indol-6-yl]-prop-2-ynyl-amine] | 27.1% |
| C=C(C)CNc1ccc2c(Sc3ccccc3[N+](=O)[O-])cn(Cc3cc(F)cc(F)c3)c2c1 [Example 22c] | 1.2% |
| O=[N+]([O-])c1ccccc1Sc1cn(Cc2cc(F)cc(F)c2)c2cc(NCC3CC3)ccc12 [Example 22d] | 0.9% |
| COC(=O)CNc1ccc2c(Sc3ccccc3[N+](=O)[O-])cn(Cc3cc(F)cc(F)c3)c2c1 [Example 22e] | 4.0% |
| Methyl-[1-(3-meth 1-benzyl-3-(2-nitro-phenylsulfanyl)-1H-indol-6-yl]-amine [Example 5o] | 1.6% |
